Entries after “also recorded” stand apart in the source; their conditions may differ.
Experiments:
caspase-1 [1] = target: T1, caspase-1 (Homo sapiens, UniProt P29466); test: Caspase-1 inhibition assay (Ac-YVAD-AMC); assay type: biochemical
T1 sequence (P29466 120-404): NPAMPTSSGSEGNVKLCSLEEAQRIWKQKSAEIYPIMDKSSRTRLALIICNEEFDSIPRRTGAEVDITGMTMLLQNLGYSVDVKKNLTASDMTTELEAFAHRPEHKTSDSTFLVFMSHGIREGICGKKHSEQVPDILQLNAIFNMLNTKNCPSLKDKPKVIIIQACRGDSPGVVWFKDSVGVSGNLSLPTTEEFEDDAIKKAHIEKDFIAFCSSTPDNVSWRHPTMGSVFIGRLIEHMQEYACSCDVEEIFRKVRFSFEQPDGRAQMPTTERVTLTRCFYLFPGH
Procedure: Caspase-1 and caspase-11 inhibition assays: the fluorogenic assay for caspase-1 and caspase-11 activity is based on release of 7-amino-4-methylcoumarin (AMC) from the caspase substrate Ac-YVAD-AMC. Compounds (8 nM-50 μM) were incubated with 0.5 U of caspase-1 or caspase-11 for 30 min in assay buffer (20 mM HEPES, 150 mM NaCl) in 384-well plates (Corning 3820) before addition of Ac-YVAD-AMC (40 μM) to initiate the reactions. Reactions were monitored in a SpectraMax M5 plate reader (Molecular Devices, Sunnyvale, Calif. USA) with excitation/emission wavelengths at 350/460 nm. The fluorescence intensity of each reaction was recorded every 2 min for 2 hrs.
Fluorescence intensity at 460 nm was measured after excitation at 350 nm.

ASC specks = test: ASC speck formation in LPS-primed THP-1 cells plus nigericin; assay type: cell-based, human; details: for ASC speck formation: 1 hr before nigericin
Procedure: Immunostaining and confocal microscopy: cells grown on coverslips were fixed for 15 min with 4% paraformaldehyde in PBS, permeabilized for 5 min in 0.1% Triton X-100 in PBS and blocked using 5% BSA for 1 hr. Then, cells were stained with the indicated primary antibodies followed by incubation with fluorescent-conjugated secondary antibodies (Jackson ImmunoResearch). Nuclei were counterstained with DAPI (4,6-diamidino-2-phenylindole) (Sigma-Aldrich). Slides were mounted using Aqua-Poly/Mount (Dako). Images were captured using a laser scanning confocal microscope (Olympus Fluoview FV1000 Confocal System) with a 63× water immersion objective and Olympus Fluoview software (Olympus). All confocal images are representative of three independent experiments.
Nigericin activates the assembly of the NLRP3 canonical inflammasome using an adaptor called apoptosis-associated speck-like protein containing a caspase recruitment domain (ASC), which can be visualized in immunofluorescent microscopy as specks. When LPS-primed THP-1 cells were treated with nigericin in the absence of inhibitors, ASC specks were detected in 30% of cells (FIG. 36). As expected, speck formation was not inhibited by z-VAD-fmk, since caspase activation occurs downstream of inflammasome assembly.
(§1) Cell death was determined by CytoTox96 assay. […] Cell death was determined by CytoTox96 assay. […] Shown are immunoblots of whole cell lysates harvested 0.5 hr later. […] Representative images of ASC specks (arrowheads) and mean±s.d. percent of cells with ASC specks analyzed 20 min later (FIG. 47). Whole cell lysates (WCL) and culture supernatants (Sup) were harvested 30 min after adding nigericin and immunoblotted with the indicated antibodies (FIG. 50). Caspase-1 activity was assayed 30 min after adding nigericin using a cell-permeable fluorescence dye FAM-YVAD-FMK (FIG. 52). […] Representative images of ASC specks (arrowheads) and mean±s.d. percent of cells with ASC specks analyzed 20 min later (FIGS. 48 and 49). Whole cell lysates (WCL) and culture supernatants (Sup), harvested 30 min after adding nigericin, were analyzed by immunoblot (FIG. 51). […] The Figures show representative confocal microscopy images and quantification of proportion of cells with GSDMD membrane staining and pyroptotic bubbles. Arrows indicate GSDMD staining of pyroptotic bubbles. […] FIGS. 57 and 58, dose response curve of the effect of Bay 11-7082 on caspase-1 (FIG. 57) and caspase-11 (FIG. 58) activity against a fluorescent peptide substrate. […] (FIG. 60). FIGS. 61 and 62 show dose response curve of the effect of Bay 11-7082 on liposome leakage induced by 0.3 μM human GSDMD-3C (FIG. 61) or mouse GSDMA3-3C (FIG. 62) plus 0.15 μM 3C protease. […] 2-fold dilutions of Bay 11-7082 from 5-40 μM were used. Graphs show the mean±s.d; data are representative of three independent experiments. *P<0.05, **P<0.01.

[2] = test system: caspase-1, GSDMD, and pro-IL-1β; test: Caspase-1, GSDMD, pro-IL-1β cleavage and IL-1β secretion by immunoblot, THP-1; assay type: cell-based, human; details: 30 μM; for caspase-1, GSDMD and pro-IL-1β cleavage: 30 min after nigericin
Procedure: Immunoblot analysis: cell extracts were prepared using RIPA buffer (50 mM Tris-HCl pH 7.4, 150 mM NaCl, 1 mM EDTA, 1% Triton X-100, 0.1% SDS, 0.5% deoxycholate) supplemented with a complete protease inhibitor cocktail (Roche) and a PhosSTOP phosphatase inhibitor cocktail (Roche). Samples were subjected to SDS-PAGE and the resolved proteins were then transferred to a PVDF membrane (Millipore). Immunoblots were probed with indicated antibodies and visualized using a SuperSignal West Pico chemiluminescence ECL kit (Pierce).
To assess which steps in NLRP3-mediated inflammation were inhibited post ASC speck formation, LPS-primed THP-1 cells were treated with vehicle or 30 μM z-VAD-fmk, disulfiram or Bay 11-7082 1 hr before adding nigericin, and cleavage and activation of caspase-1, GSDMD, and pro-IL-1β were analysed by immunoblot of whole cell lysates 30 min later (FIG. 50). Secretion of processed IL-1β was also assessed by immunoblot of culture supernatants. […] Because immunoblots are not quantitative, caspase-1 activity 30 min after adding nigericin was also assessed using a fluorescent substrate in intact cells. […] Next, the effect of z-VAD-fmk, disulfiram and Bay 11-7082 on LPS+nigericin-induced GSDMD pore formation was assessed by immunofluorescence microscopy using a monoclonal antibody that was generated that recognizes both uncleaved GSDMD and its pore form (FIGS. 53, 54, and 64-66). In the absence of any inhibitor, the GSDMD antibody stained both the cytosol and the plasma membrane of LPS plus nigericin treated cells, which formed characteristic pyroptotic bubbles (See Reference 10). […] Thus, disulfiram and Bay 11-7082 inhibit multiple steps leading to canonical inflammasome-induced pyroptosis and inflammatory cytokine release, including priming, inflammasome assembly, inflammatory caspase activation, pro-inflammatory cytokine processing and GSDMD pore formation.
as §1
Canonical inflammasome assembly activates caspase-1, which cleaves pro-IL-1β and GSDMD, and the latter is needed to release processed IL-1β and to induce pyroptosis. […]

caspase-1 [3] = test: Caspase-1 activity assay in cells (FAM-YVAD-FMK); assay type: cell-based, human; details: 30 μM, 30 min after nigericin
Procedure: Caspase-1 activity assay in cells: to measure caspase-1 activation, THP-1 cells were seeded into 96-well plates and differentiated with PMA. After the indicated treatments, cells were incubated with a fluorescent active caspase-1 substrate FAM-YVAD-FMK (Immunochemistry Technologies). Samples were read on a BioTek Synergy 2 plate reader.
as §1

CCN(CC)C(=S)SSC(=S)N(CC)CC [C-23, Tetraethylthiuram disulfide]
IC50 (caspase-1 [1]): 0.15 ± 0.04 µM
effect of Cu(II) on caspase-1 inhibition (caspase-1 [1]; with Cu(II)): did not strongly change
ASC puncta (ASC specks; 1 μM with copper gluconate): reduced ASC puncta
cells with ASC specks (ASC specks; 30 μM, 1 hour before nigericin): about 20 % of cells
ASC speck formation (ASC specks; 30 μM): inhibited ASC speck formation, but not completely
caspase-1, GSDMD and pro-IL-1β cleavage ([2]; listed as disulfiram): dramatically reduced; also recorded: processing was reduced
processing of caspase-1, GSDMD and pro-IL-1β ([2]; 60 min after nigericin): caught up with what was detected in the absence of inhibitors
processed IL-1β in culture supernatants ([2]; listed as disulfiram): only detected in the culture supernatants in the absence of any inhibitor; also recorded: completely inhibited cytokine release
caspase-1 activity in intact cells (caspase-1 [3]): only partially reduced

Cc1ccc(S(=O)(=O)/C=C/C#N)cc1 [Bay 11-7082]
caspase-1 inhibition (caspase-1 [1]): inhibited
ASC speck formation (ASC specks; 30 μM): inhibited ASC speck formation, but not completely
processed IL-1β in culture supernatants [2]: only detected in the culture supernatants in the absence of any inhibitor
caspase-1, GSDMD and pro-IL-1β cleavage [2]: dramatically reduced
caspase-1 activity in intact cells (caspase-1 [3]): only partially reduced

— patent US20210267996A1, “Compounds for inhibition of inflammation” (Children`s Medical Center Corporation, priority 2018, published 2021)
